For 8 compounds, IC50 results are on record in US8653091B2, “Pyrid-2yl fused heterocyclic compounds, and compositions and uses thereof” (Evotec AG, priority 2007, dated 2014).

For one assay, the target named is P2X3 (Homo sapiens (Human), UniProt P56373). Briefly: Calcium uptake assay (P2X antagonist assay), P2X3. Type of assay: cell-based. Conditions: inhibition of agonist-induced calcium influx. From the text:
(§1) Human P2X3 (Accession no. NM_002559), P2X2 (Accession no. NM_170682) and Rat P2X3 (Accession no. NM_031075) and P2X2 (Accession no. NM_053656) are cloned into a mammalian expression vector (e.g., pcDNA5/TO or pcDNA3 Invitrogen). The human P2X2/3 chimera clone is created as described by Neelands et al, and then cloned into an expression vector as above. Receptors are expressed in cells (e.g., HEK293 or 1321N1 (obtained from the ECACC)) via transient transfection using standard lipid mediated transfection, or by creation of stable transfectants for each receptor. For expression of the P2X2/3 heteromeric receptor, the P2X3 expression vector is stably transfected into a cell line already stably expressing P2X2. P2X2/3 heteromer function is isolated using pharmacological methods. Cell lines are maintained in DMEM+5% Glutamax, the appropriate level of selective antibiotic, and 10% heat inactivated FBS.
(§2) Functional activity of compounds at the P2X receptor is determined by measuring their ability to inhibit agonist-induced calcium influx. Compounds are tested for antagonist activity against the P2X2/3 chimera, the P2X3 homomer, or the P2X2/3 heteromer. At the start of each screening day, the agonist EC50 is determined. Compound % inhibition or IC50s are subsequently determined using a pre-determined agonist concentration (EC50-90 depending on cell line) as a stimulus. The agonists used are αβMeATP, ATP, or other ATP analogs. Compounds may be tested at concentrations ranging from 1 μM to 10 μM.
(§3) To test for antagonist activity, cells expressing the appropriate receptor are seeded onto 96 or 384 well plates 18-24 hours prior to assay. On the day of the assay, cells are loaded with calcium-sensitive fluorescent dye (e.g., Fluo-4 no wash reagent-Invitrogen cat#F36206, or the BD™ PBX Calcium Assay Kit—BD cat#640175) in Hank's Buffered Salt Solution (HESS) with up to 10 mM supplemental CaCl2. Plates are incubated at 37° C. and then equilibrated at room temperature. Antagonism of agonist-induced calcium influx is measured using a fluorescent imaging plate reader (e.g. FLIPR^TETRA, Molecular Devices, Sunnyvale, Calif.). The assay comprises two stages: a pre-treatment phase followed by a treatment phase. Compounds may be tested as follows: For the pre-treatment phase, 50 μL of 3× concentration of test compound in HBSS is added to cells containing 100 μL of dye loading media to achieve a final concentration of 1× test compound. For the treatment phase, at a set interval after pre-treatment (1-30 minutes), 50 μL of 1× test compound plus […] solution is added, resulting in a final concentration of 1× compound and 1× agonist. Fluorescence is measured at 0.1-3 second intervals—with an excitation wavelength of 494 nm and an emission wavelength of 515 nm. Responses are measured as (peak fluorescence after agonist addition) minus (baseline fluorescence prior to treatment). Percent inhibition is calculated as follows: […]
(§4) IC50 values are determined by analyzing dose response data in a 4 parameter logistic fit using GraphPad Prizm.

The next assay concerns the target P2X2/3 (Homo sapiens (Human), UniProt P56373+Q9UBL9). Kind of assay: Calcium uptake assay (P2X antagonist assay), P2X2/3. Conditions: inhibition of agonist-induced calcium influx. Type of assay: cell-based.
Text: as §1, §2, §3, §4

In general, IC50 refers to the concentration at which inhibition is half-maximal.

P2X3, sequence (P56373 whole entry): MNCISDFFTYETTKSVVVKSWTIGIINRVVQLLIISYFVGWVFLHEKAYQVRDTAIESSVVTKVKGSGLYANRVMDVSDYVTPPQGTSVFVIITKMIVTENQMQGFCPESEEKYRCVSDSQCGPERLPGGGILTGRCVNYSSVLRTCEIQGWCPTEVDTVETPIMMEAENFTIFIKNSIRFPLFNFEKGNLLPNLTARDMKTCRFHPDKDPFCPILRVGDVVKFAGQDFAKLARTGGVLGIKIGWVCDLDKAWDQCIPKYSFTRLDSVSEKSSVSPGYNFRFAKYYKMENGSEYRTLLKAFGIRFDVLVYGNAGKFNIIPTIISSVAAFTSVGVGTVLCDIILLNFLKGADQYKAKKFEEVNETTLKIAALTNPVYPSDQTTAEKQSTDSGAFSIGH
P2X2/3, sequence (Q9UBL9 whole entry): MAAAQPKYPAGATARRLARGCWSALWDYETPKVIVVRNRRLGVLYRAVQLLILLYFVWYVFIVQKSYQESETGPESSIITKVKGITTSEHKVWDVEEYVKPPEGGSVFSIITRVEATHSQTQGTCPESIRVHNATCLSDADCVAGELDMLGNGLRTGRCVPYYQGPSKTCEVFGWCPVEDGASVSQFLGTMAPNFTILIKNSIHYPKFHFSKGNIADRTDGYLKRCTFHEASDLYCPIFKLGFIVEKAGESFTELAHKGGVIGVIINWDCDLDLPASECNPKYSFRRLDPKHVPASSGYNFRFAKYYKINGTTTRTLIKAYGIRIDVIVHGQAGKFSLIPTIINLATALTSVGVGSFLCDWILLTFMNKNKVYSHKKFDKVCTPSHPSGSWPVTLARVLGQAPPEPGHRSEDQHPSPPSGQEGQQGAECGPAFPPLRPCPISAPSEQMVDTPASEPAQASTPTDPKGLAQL
P2X2/3, sequence (P56373 whole entry): as the sequence (P56373 whole entry) above

Take `COc1ccc([C@@H](CCO)Nc2ncnc3c2CN(c2ccc(Cl)cn2)CC3)cn1` [Compound 57, (R)-3-[6-(5-Chloro-pyridin-2-yl)-5,6,7,8-tetrahydro-pyrido[4,3-d]pyrimidin-4-ylamino]-3-(6-methoxy-pyridin-3-yl)-propan-1-ol]: the IC50 worked out at 103 nM on P2X3 and 318 nM at P2X2/3.

As for `COc1ccc([C@@H](CCO)Nc2ncnc3c2CN(c2ccc(C)cn2)CC3)cn1` [Compound 58, (R)-3-(6-Methoxy-pyridin-3-yl)-3-[6-(5-methyl-pyridin-2-yl)-5,6,7,8-tetrahydro-pyrido[4,3-d]pyrimidin-4-ylamino]-propan-1-ol], the IC50 at P2X3 was found to be 29 nM; at P2X2/3 it was 83 nM.

For `COc1ccc([C@@H](CO)Nc2ncnc3c2CN(c2ccc(Cl)cn2)CC3)cn1` [Compound 59, (S)-2-[6-(5-Chloro-pyridin-2-yl)-5,6,7,8-tetrahydro-pyrido[4,3-d]pyrimidin-4-ylamino]-2-(6-methoxy-pyridin-3-yl)-ethanol], the IC50 on P2X3 came to 90 nM; on P2X2/3 it was 276 nM.

For the compound `COc1ccc([C@@H](CO)Nc2ncnc3c2CN(c2ccc(C)cn2)CC3)cn1` [Compound 60, (S)-2-(6-Methoxy-pyridin-3-yl)-2-[6-(5-methyl-pyridin-2-yl)-5,6,7,8-tetrahydro-pyrido[4,3-d]pyrimidin-4-ylamino]-ethanol], the IC50 on P2X3 is 27 nM; at P2X2/3, 97 nM.

With `Cc1ccc(N2CCc3ncnc(N[C@H](CCO)c4ccc(C)nc4)c3C2)nc1` [Compound 61, (R)-3-(6-Methyl-pyridin-3-yl)-3-[6-(5-methyl-pyridin-2-yl)-5,6,7,8-tetrahydro-pyrido[4,3-d]pyrimidin-4-ylamino]-propan-1-ol], the IC50 on P2X3 was found to be 28 nM; at P2X2/3, 133 nM.

In the case of `Cc1ccc(N2CCc3ncnc(NC(CO)c4cccnc4)c3C2)nc1` (stereo not shown) [Compound 62, 2-[6-(5-Methyl-pyridin-2-yl)-5,6,7,8-tetrahydro-pyrido[4,3-d]pyrimidin-4-ylamino]-2-pyridin-3-yl-ethanol], the IC50 worked out at 272 nM at P2X3 and 3090 nM at P2X2/3.

With `Cc1ccc(N2CCc3ncnc(N[C@H](CCO)c4ccc(C(F)(F)F)nc4)c3C2)nc1` [Compound 63, (R)-3-[6-(5-Methyl-pyridin-2-yl)-5,6,7,8-tetrahydro-pyrido[4,3-d]pyrimidin-4-ylamino]-3-(6-trifluoromethyl-pyridin-3-yl)-propan-1-ol], the IC50 on P2X3 is 24 nM; at P2X2/3, 335 nM.

With `Cc1ccc(N2CCc3ncnc(N[C@H](C)c4cnc(C)nc4)c3C2)nc1` [Compound 64, [6-(5-Methyl-pyridin-2-yl)-5,6,7,8-tetrahydro-pyrido[4,3-d]pyrimidin-4-yl]-[(R)-1-(2-methyl-pyrimidin-5-yl)-ethyl]-amine], the results for the IC50 at P2X3 and at P2X2/3 were 17 nM and 260 nM, respectively.
